# Patent publication US9273057B2 (Bristol-Myers Squibb Company, priority 2012, dated 2016)
# pIC50: −log10 of the molar value.
# Target: CK2A1 (CK2α/β) (Homo sapiens, UniProt P68400)
# Experiment: CK2 kinase assay, CK2A1 (CK2α/β)
# Assay type: biochemical
# Conditions: Table A; read-out: CK2A1 (CK2α/β) (IC50)
# Sequence of CK2A1 (CK2α/β) (P68400 whole entry, species assumed): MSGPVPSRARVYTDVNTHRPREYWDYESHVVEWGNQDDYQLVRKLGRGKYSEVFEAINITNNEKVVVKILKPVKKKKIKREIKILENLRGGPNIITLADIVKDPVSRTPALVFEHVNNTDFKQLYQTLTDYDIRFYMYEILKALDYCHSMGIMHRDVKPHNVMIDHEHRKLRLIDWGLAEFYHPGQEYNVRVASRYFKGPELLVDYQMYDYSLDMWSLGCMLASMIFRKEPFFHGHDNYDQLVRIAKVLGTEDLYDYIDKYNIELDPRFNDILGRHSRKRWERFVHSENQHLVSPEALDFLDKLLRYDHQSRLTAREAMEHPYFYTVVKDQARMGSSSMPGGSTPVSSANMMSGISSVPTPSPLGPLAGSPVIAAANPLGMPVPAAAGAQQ
# Sequence of CK2A1 (CK2α/β) (P67870 whole entry partner, species assumed): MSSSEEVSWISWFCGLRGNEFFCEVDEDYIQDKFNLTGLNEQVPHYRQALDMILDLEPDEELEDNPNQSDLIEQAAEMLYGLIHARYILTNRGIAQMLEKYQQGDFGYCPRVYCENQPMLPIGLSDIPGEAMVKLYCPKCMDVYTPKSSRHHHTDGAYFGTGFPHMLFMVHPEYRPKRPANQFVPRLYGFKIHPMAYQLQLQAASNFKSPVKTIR
row,pIC50,SMILES
1,9.40,"N#Cc1cc(Nc2nc(NC3CC3)c3ncc(C#N)n3n2)c(Cl)c(C2(F)CNC2)c1 [Example 659, 2-((2-chloro-5-cyano-3-(3-fluoroazetidin-3-yl)phenyl)amino)-4-(cyclopropylamino)imidazo[2,1-f][1,2,4]triazine-7-carbonitrile]"
2,8.13,"Cc1nn(CCN(C)C)c(C)c1-c1cc(C#N)cc(Nc2nc(NC3CC3)c3ncc(C#N)n3n2)c1Cl [Example 719, 2-[(2-chloro-5-cyano-3-{1-[2-(dimethylamino)ethyl]-3,5-dimethyl-1H-pyrazol-4-yl}phenyl)amino]-4-(cyclopropylamino)imidazo [2,1-f][1,2,4]triazine-7-carbonitrile]"
3,8.61,"COCCN(C)CC1CN(c2cc(C#N)cc(Nc3nc(NC4CC4)c4ncc(C#N)n4n3)c2Cl)CCO1 (stereo not drawn) [Example 702, 2-{[2-chloro-5-cyano-3-(2-{[(2-methoxyethyl)(methyl)amino]methyl}morpholin-4-yl)phenyl]amino}-4-(cyclopropylamino)imidazo[2,1-f][1,2,4]triazine-7-carbonitrile]"
4,8.24,"CNC(=O)CN1CCN(c2cc(C#N)cc(Nc3nc(NC4CC4)c4ncc(C#N)n4n3)c2Cl)C(=O)C1 [Example 625, 2-(4-(2-chloro-5-cyano-3-((7-cyano-4-(cyclopropylamino)imidazo[2,1-f][1,2,4]triazin-2-yl)amino)phenyl)-3-oxopiperazin-1-yl)-N-methylacetamide]"
5,9.24,COC1CCN(C2CN(c3cc(C#N)cc(Nc4nc(NC5CC5)c5ncc(C#N)n5n4)c3Cl)C2)CC1 [Example 164]
6,7.60,"CC(CC(C)c1cc(Cl)c(Nc2nc(NC3CC3)c3ncc(C#N)n3n2)cc1C#N)NCC(F)(F)F (stereo not drawn) [Example 732, 2-((2-chloro-5-cyano-4-(4-((2,2,2-trifluoroethyl)amino)pentan-2-yl)phenyl)amino)-4-(cyclopropylamino)imidazo[2,1-f][1,2,4]triazine-7-carbonitrile]"
7,8.32,"CC1(C(=O)N2CC(N3CCN(c4cc(C#N)cc(Nc5nc(NC6CC6)c6ncc(C#N)n6n5)c4Cl)CC3)C2)COC1 [Example 515, 2-[(2-chloro-5-cyano-3-{4-[1-(3-methyloxetane-3-carbonyl)azetidin-3-yl]piperazin-1-yl}phenyl)amino]-4-(cyclopropylamino)imidazo[2,1-f][1,2,4]triazine-7-carbonitrile]"
8,9.34,"N#Cc1cc(Nc2nc(NC3CC3)c3ncc(C#N)n3n2)c(Cl)c(N2CCC(O)CC2)c1 [Example 39, 2-((2-chloro-5-cyano-3-(4-hydroxy-1-piperidinyl)phenyl)amino)-4-(cyclopropylamino)imidazo [2,1-f][1,2,4]triazine-7-carbonitrile]"
9,8.97,"N#Cc1cc(CNC2COC2)c(Cl)c(Nc2nc(NC3CC3)c3ncc(C#N)n3n2)c1 [Example 479, 2-[(2-chloro-5-cyano-3-{[(oxetan-3-yl)amino]methyl}phenyl)amino]-4-(cyclopropylamino)imidazo[2,1-f][1,2,4]triazine-7-carbonitrile]"
10,9.22,"N#Cc1cc(Nc2nc(NC3CC3)c3ncc(C#N)n3n2)c(Cl)c(C2CCN(C3CC[C@@H](N)[C@H](O)C3)CC2)c1 (stereo partly drawn) [Example 217, 2-((3-(1-((3R,4R)-4-amino-3-hydroxycyclohexyl)-4-piperidinyl)-2-chloro-5-cyanophenyl)amino)-4-(cyclopropylamino)imidazo[2,1-f][1,2,4]triazine-7-carbonitrile]"
11,8.57,"COC(=O)N[C@H]1CCN(c2cc(C#N)cc(Nc3nc(NC4CC4)c4ncc(C#N)n4n3)c2Cl)CC1NCC(C)(C)O (stereo in doubt) [Example 755, methyl N-[(3S,4S)-1-(2-chloro-5-cyano-3-{[7-cyano-4-(cyclopropylamino)imidazo [2,1-f][1,2,4]triazin-2-yl]amino}phenyl)-3-[(2-hydroxy-2-methylpropyl)amino]piperidin-4-yl]carbamate]"
12,8.90,"CCNc1nc(Nc2cc(C#N)cc(N3CCN(C4CN(C(=O)OC)C4)CC3)c2Cl)nn2c(C#N)cnc12 [Example 101, methyl 3-(4-(2-chloro-5-cyano-3-((7-cyano-4-(ethylamino)imidazo [2,1-f][1,2,4]triazin-2-yl)amino)phenyl)-1-piperazinyl)-1-azetidinecarboxylate]"
13,9.30,"N#Cc1cc(Nc2nc(NC3CC3)c3ncc(C#N)n3n2)c(Cl)c(N2CCN(C(=O)C3CCCO3)CC2)c1 (racemic) [Example 84, (+/−) 2-((2-chloro-5-cyano-3-(4-(tetrahydro-2-furanylcarbonyl)-1-piperazinyl)phenyl)amino)-4-(cyclopropylamino) imidazo[2,1-f][1,2,4] triazine-7-carbonitrile]"
14,8.88,"N#Cc1cc(Nc2nc(NC3CC3)c3ncc(C#N)n3n2)c(Cl)c(N2CCN(C3CN(C(=O)C(F)F)C3)CC2)c1 [Example 491, 2-[(2-chloro-5-cyano-3-{4-[1-(2,2-difluoroacetyl)azetidin-3-yl]piperazin-1-yl}phenyl)amino]-4-(cyclopropylamino)imidazo[2,1-f][1,2,4]triazine-7-carbonitrile]"
15,9.21,"N#Cc1cc(CN2CCC(O)CC2)c(Cl)c(Nc2nc(NC3CC3)c3ncc(C#N)n3n2)c1 [Example 672, 2-((2-chloro-5-cyano-3-((4-hydroxypiperidin-1-yl)methyl)phenyl)amino)-4-(cyclopropylamino)imidazo[2,1-f][1,2,4]triazine-7-carbonitrile]"
16,8.40,"CCNc1nc(Nc2cc(C#N)cc(N3CC[C@@H](NC(=O)OC)[C@H](N(C)[C@@H](C)C(N)=O)C3)c2Cl)nn2c(C#N)cnc12 [Example 768, methyl N-[(3R,4R)-3-{[(1S)-1-carbamoylethyl](methyl)amino}-1-(2-chloro-5-cyano-3-{[7-cyano-4-(ethylamino)imidazo[2,1-f] [1,2,4]triazin-2-yl]amino}phenyl)piperidin-4-yl] carbamate]"
17,9.12,"N#Cc1cc(CN2CCNCC2)c(Cl)c(Nc2nc(NC3CC3)c3ncc(C#N)n3n2)c1 [Example 668, 2-((2-chloro-5-cyano-3-(piperazin-1-ylmethyl)phenyl)amino)-4-(cyclopropylamino)imidazo[2,1-f][1,2,4]triazine-7-carbonitrile]"
18,9.04,"COC(=O)N[C@H]1CN(c2cc(C#N)cc(Nc3nc(NC4CC4)c4ncc(C#N)n4n3)c2Cl)C[C@@H]1OC [Example 288, methyl ((3S,4S)-1-(2-chloro-5-cyano-3-((7-cyano-4-(cyclopropylamino)imidazo[2,1-f][1,2,4]triazin-2-yl)amino)phenyl)-4-methoxy-3-pyrrolidinyl)carbamate]"
19,9.23,"COC(=O)N[C@H]1C[C@H](O)CN(c2cc(C#N)cc(Nc3nc(NC4CC4)c4ncc(C#N)n4n3)c2Cl)C1 (racemic) [Example 17, (+/−) methyl ((3S,5S)-1-(2-chloro-5-cyano-3-((7-cyano-4-(cyclopropylamino)imidazo [2,1-f][1,2,4]triazin-2-yl)amino)phenyl)-5-hydroxy-3-piperidinyl)carbamate]"
20,8.20,"N#Cc1cc(Nc2nc(NC3CC3)c3ncc(C#N)n3n2)c(F)c(N2CCN([C@@H]3COC[C@H]3O)CC2)c1 (racemic) [Example 552, rac-2-((5-cyano-2-fluoro-3-(4-((3R,4S)-4-hydroxytetrahydrofuran-3-yl)piperazin-1-yl)phenyl)amino)-4-(cyclopropylamino)imidazo[2,1-f][1,2,4]triazine-7-carbonitrile]"
21,8.83,"CN1CCOC(c2cc(C#N)cc(Nc3nc(NC4CC4)c4ncc(C#N)n4n3)c2Cl)C1 (racemic) [Example 694, (+/−)-2-((2-chloro-5-cyano-3-(4-methylmorpholin-2-yl)phenyl)amino)-4-(cyclopropylamino)imidazo[2,1-f][1,2,4]triazine-7-carbonitrile]"
22,8.62,"CCNc1nc(Nc2ccc3c(c2)c(C#N)cn3C2CCN(C3CN(C(C)=O)C3)CC2)nn2c(C#N)cnc12 [Example 837, 2-((1-(1-(1-acetylazetidin-3-yl)piperidin-4-yl)-3-cyano-1H-indol-5-yl)amino)-4-(ethylamino)imidazo[2,1-f][1,2,4]triazine-7-carbonitrile]"
23,9.33,"C[C@@H](CN1CCN(c2cc(C#N)cc(Nc3nc(NC4CC4)c4ncc(C#N)n4n3)c2Cl)CC1)NS(C)(=O)=O [Example 69, N-((1S)-2-(4-(2-chloro-5-cyano-3-((7-cyano-4-(cyclopropylamino)imidazo[2,1-f][1,2,4]triazin-2-yl)amino)phenyl)-1-piperazinyl)-1-methylethyl) methanesulfonamide]"
24,9.08,"CCOC(=O)N1CCC(NC2CCN(c3cc(C#N)cc(Nc4nc(NC5CC5)c5ncc(C#N)n5n4)c3Cl)CC2)CC1 [Example 118, ethyl 4-((1-(2-chloro-5-cyano-3-((7-cyano-4-(cyclopropylamino)imidazo [2,1-f][1,2,4]triazin-2-yl)amino)phenyl)-4-piperidinyl)amino)-1-piperidinecarboxylate]"
25,9.38,"N#Cc1cc(Nc2nc(NC3CC3)c3ncc(C#N)n3n2)c(Cl)c(N2CC(N3CCNCC3)C2)c1 [Example 155, 2-((2-chloro-5-cyano-3-(3-(1-piperazinyl)-1-azetidinyl)phenyl)amino)-4-(cyclopropylamino)imidazo [2,1-f][1,2,4]triazine-7-carbonitrile]"
26,8.93,"CC(=O)NCC1CN(c2cc(C#N)cc(Nc3nc(NC4CC4)c4ncc(C#N)n4n3)c2Cl)CCO1 (stereo not drawn) [Example 712, N-{[4-(2-chloro-5-cyano-3-{[7-cyano-4-(cyclopropylamino)imidazo[2,1-f][1,2,4]triazin-2-yl]amino}phenyl)morpholin-2-yl]methyl}acetamide]"
27,9.23,"CO[C@@H]1CN(c2cc(C#N)cc(Nc3nc(NC4CC4)c4ncc(C#N)n4n3)c2Cl)C[C@@H]1NS(C)(=O)=O [Example 289, N-((3S,4R)-1-(2-chloro-5-cyano-3-((7-cyano-4-(cyclopropylamino)imidazo[2,1-f][1,2,4]triazin-2-yl)amino)phenyl)-4-methoxy-3-pyrrolidinyl)methanesulfonamide]"
